Experiment: mn = molality of the nth substance listed, in mol/kg
Conditions: 100 kPa, Liquid, Pycnometric method

O=C([O-])[O-].[Li+].[Li+] [lithium carbonate] + O
Conditions	mass density [kg/m3]
283.15 K, m1 = 0.1933	1007.2
298.15 K, m1 = 0.1738	1003.8
303.15 K, m1 = 0.1676	1002.2
313.15 K, m1 = 0.1558	998.3
323.15 K, m1 = 0.1454	993.7
333.15 K, m1 = 0.1352	988.5
343.15 K, m1 = 0.1251	982.6
353.15 K, m1 = 0.1149	976.2
363.15 K, m1 = 0.106	969.4
368.15 K, m1 = 0.1015	965.2

Reference: the NIST ThermoML archive (doi:10.1016/j.jct.2018.03.027)
